Experiments:
[1] = target: T1, GSK3β (Homo sapiens, UniProt P49841); test: Evaluation of GSK3β activity: inhibition of purified GSK3β, [γ-32P]ATP / GS-2 peptide filter assay; assay type: biochemical; conditions: for IC50: purified GSK3β expressed in Sf9 cells, 15 μM ATP, GS-2 peptide substrate, 30 min at 30° C.; for inhibiting activity on GSK3β activity (in words): summary of Table 1
T1 construct: made in house; host or cells: insect Sf9 cells
Procedure: Compounds were evaluated for inhibition against purified GSK3β. GSK3β was expressed in and purified from insect Sf9 cells. Compounds (10 μM) were assayed; following a 1/100 dilution of the enzyme in 1 mg/ml BSA, 10 mM DTT, with 5 μl of 40 μM GS-2 peptide as a substrate, in a buffer, in the presence of 15 μM [γ-^32P]ATP (3000 Ci/mmol; 1 mCi/ml) in a final volume of 30 μl. After 30-min incubation at 30° C., 25-μl aliquots of supernatant were spotted onto 2.5×3 cm pieces of Whatman P81 phosphocellulose paper, and, 20 s later, the filters were washed five times (for at least 5 min each time) in a solution of 10 ml of phosphoric acid/liter of water. The wet filters were counted in the presence of 1 ml of scintillation fluid.

[2] = test system: MPTP-treated mice; test: Anti-Parkinsonian activity in MPTP-treated mice with a sub threshold dose of L-DOPA (motor activity counts); assay type: in vivo, C57 BL/6 mice; conditions: for LOCOMOTION / REARING / TOTAL ACTIVITY: MPTP-treated mice (2×40 mg/kg s.c.), compound 3 mg/kg orally + 5 mg/kg L-Dopa s.c., counts with Vehicle (no MPTP) = 100%
Procedure: Animals: six month old male C57 BL/6 mice, weighing 22-25 g were used. Following arrival at the laboratory, the mice were allowed to acclimatize for two weeks in a room with controlled temperature (21±1° C.), and a constant light-dark schedule (12 hr on/12 hr off, lights on between 06.00 and 18.00 hrs). Free access to food and water was maintained throughout. They were housed in groups of 12 animals and tested only during the hours of light (08.00-15.00 hrs). All testing was performed in a normally lighted room.
Behavioural measurements and apparatus: An automated device, consisting of macrolon rodent test cages (40×25×15 cm), each placed within two series of infra-red beams (at two different heights, one low and one high, 2 and 8 cm, respectively, above the surface of the sawdust, 1 cm deep), was used to measure spontaneous and/or drug-induced motor activity of 1-methyl 4-phenyl 1,2,3,6-tetrahydropyridine (MPTP) and control mice. The following parameters were measured: LOCOMOTION was measured by the low grid of infrared beams. Counts were registered only when the mouse in the horizontal plane, ambulating around the test-cage. REARING was registered throughout the time when at least one high level beam was interrupted, i.e. the number of counts registered was proportional to the amount of time spent rearing. TOTAL ACTIVITY was measured by a sensor (a pick-up similar to a gramophone needle, mounted on a lever with a counterweight) with which the test cage was constantly in contact. The sensor registered all types of vibration received from the test cage, such as those produced both by locomotion and rearing as well as shaking, tremors, scratching and grooming.
Behavioral measurements (locomotion, rearing and total activity): Twelve days after MPTP injections (2×40 mg/kg, s.c., 24 hr interval), the mice were administered orally with the different compounds at 3 mg/kg or vehicle (0.1% Tween-80 in 1% methylcellulose) and immediately thereafter placed in the activity test chambers and their motor behaviors were monitored for 60 min. After 60 min, the mice were injected with 5 mg/kg L-Dopa (s.c) and then replaced in the test chamber and activity measurements maintained for an additional 300 min.
Table 2 presents the locomotion, rearing and total activity counts of MPTP-treated and control mice administered either tested substances or vehicle administered with a sub threshold dose of L-Dopa.

[3] = test system: NMDA-activated currents; test: Electrophysiological characterisation of NMDA-activated currents in freshly isolated hippocampal neurones (whole-cell patch clamp); assay type: cell-based, Wistar rats; conditions: for % Inhibition Peak Current / % Inhibition Steady State Current: 1 μM substance, 10 μM glycine, 300 μM L-aspartate, holding potential −70 mV, mean of at least 4 cells
Procedure: Isolation of hippocampal neurons: Wistar rats (12-14 days) were decapitated without anesthesia and the hippocampus was removed. It was manually cut into slices (0.2-0.4 mm), in a solution containing (mM): 150 NaCl; 5 KCL; 1.25 NaH2PO4; 2 CaCl2; 2 MgCl2; 26 NaHCO3; 20 glucose. Slices were preincubated in this solution for 30 min at room temperature. The enzymatic treatment proceeded in the same solution with lower Ca^2+ concentration (0.5 mm) containing 0.4 mg/ml protease from aspergillus oryzae. The incubation in the enzyme solution proceeded at 32° C. within 10 min. Slices were kept subsequently in enzyme-free solution containing normal Ca^2±concentration and used within 6-8 h for obtaining isolated neurons. Throughout the entire procedure the solutions were continuously saturated with a 95% O2 and 5% CO2 gas mixture to maintain pH of 7.4. For cell dissociation the slice was transferred into the extracellular solution containing (mM): 150 NaCl; 5 KCl; 2 CaCl2; 10 n-2-hydroxyethylpiperazine-n′-2-ethanesulphonic acid (Hepes); pH adjusted with NaOH to 7.4. Single cells were isolated from CA and CA3 zones of hippocampal slices by vibrodissociation method. […] After isolation they were usually suitable for the recording for 1-2 h.
Salines and chemicals: The contents of the extracellular solution was as follows (in mM): 130 NaCl, 5KCl, 2CaCl2, 20 n-2-hydroxyethylpiperazine-n′-2-ethansulfonic acid (Hepes); 0.1 μm TTX, 10 μm glycine, […] 1-aspartate; pH was adjusted with NaOH to 7.4.
The contents of the intracellular solution were as follows (in mM): 110 CsF, 20 Tris-HCl (pH=7.2). L-aspartate and glycine solutions were prepared on the day of experiment.
The tested substances were dissolved in DMSO.
Current recording and data analysis: The drug-containing solutions were applied by the fast “concentration clamp” method using “jumping table” set-up. The currents were recorded with patch clamp technique in the whole-cell configuration. Recording of the currents was performed using EPC-7 L/M patch-clamp amplifier.
NMDA-activated currents: The currents were filtered at 3 kHz (three-pole active Bessel filter) digitally sampled at the rate 6000 μs per point for NMDA activated currents. NMDA-induced transmembrane currents were measured in the presence of 10 μM glycine and 300 μM L-aspartate in the control and test solutions. The currents were recorded at holding potential −70 mV.
Calculations: The inhibition of current at 1 μM of the substance was averaged at least for 4 cells. The effect of substance was measured as the mean ratio I/Io where I was the current under the action of substance and Io was the current in control conditions.

T1 sequence (P49841 whole entry, species assumed): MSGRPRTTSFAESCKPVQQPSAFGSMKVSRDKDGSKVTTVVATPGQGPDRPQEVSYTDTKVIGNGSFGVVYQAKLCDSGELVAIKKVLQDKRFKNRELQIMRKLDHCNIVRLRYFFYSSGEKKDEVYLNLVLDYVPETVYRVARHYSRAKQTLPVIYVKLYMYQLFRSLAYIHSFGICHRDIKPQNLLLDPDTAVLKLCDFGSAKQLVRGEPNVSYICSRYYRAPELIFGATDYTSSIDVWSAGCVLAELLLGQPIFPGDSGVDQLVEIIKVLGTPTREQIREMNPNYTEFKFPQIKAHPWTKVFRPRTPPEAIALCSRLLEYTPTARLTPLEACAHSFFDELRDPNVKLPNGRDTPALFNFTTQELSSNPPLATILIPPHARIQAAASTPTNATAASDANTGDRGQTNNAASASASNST

Row | SMILES | IC50 [1] | inhibiting activity on GSK3β activity (in words) [1] | LOCOMOTION [2] | REARING [2] | TOTAL ACTIVITY [2] | % Inhibition Peak Current [3] | % Inhibition Steady State Current [3] | reversal of the motor deficits of MPTP-treated mice (in words) ([2]; 3 mg/kg, combined with a sub-threshold (inactive) dose of L-Dopa) | blocking activity on NMDA-activated currents (in words) ([3]; summary of Table 3, 1 μM)
1 | N#Cc1ccc(NCCC(=O)c2ccccc2N)c([N+](=O)[O-])c1 [2-(2-aminobenzoyl)-N-2-nitro-4-cyano-phenylethylamine] | 29.3 µM | significant inhibiting activity | 17% | 29% | 46% | 85.95% | 87.24% |  | 
2 | N#Cc1cc([N+](=O)[O-])ccc1NCCc1c[nH]c2ccccc12 [N-(2-cyano-4-nitrophenyl)-tryptamine] | 12.7 µM | significant inhibiting activity | 52% | 98% | 73% | 83.1% | 82.44% | significantly reversed the motor deficits | significant blocking activity

Source: patent US8236858B2, “Substituted aryl-indole compounds and their kynurenine/kynuramine-like metabolites as therapeutic agents” (Neurim Pharmaceuticals (1991) Ltd., priority 2006, dated 2012)
